Laboratory results published in patent US7811760B2, “Vector and method for detecting the change in transcription amount” (priority 2006, dated 2010).

Molecular target: T1, C57/BL6-line mouse AhR (Mus musculus, UniProt P30561)
T1 construct: The AhR gene-coding region of the C57/BL6-line mouse was amplified from the reverse-transcribed sample by means of PCR; expressed in transfected cells; host or cells: mouse neuroblastoma Neuro2a, transient transfection with LIPOFECTAMINE 2000
T1 sequence (P30561 10-805 M324I/F348L/P471L/N533S/M589L/T758A limits assumed): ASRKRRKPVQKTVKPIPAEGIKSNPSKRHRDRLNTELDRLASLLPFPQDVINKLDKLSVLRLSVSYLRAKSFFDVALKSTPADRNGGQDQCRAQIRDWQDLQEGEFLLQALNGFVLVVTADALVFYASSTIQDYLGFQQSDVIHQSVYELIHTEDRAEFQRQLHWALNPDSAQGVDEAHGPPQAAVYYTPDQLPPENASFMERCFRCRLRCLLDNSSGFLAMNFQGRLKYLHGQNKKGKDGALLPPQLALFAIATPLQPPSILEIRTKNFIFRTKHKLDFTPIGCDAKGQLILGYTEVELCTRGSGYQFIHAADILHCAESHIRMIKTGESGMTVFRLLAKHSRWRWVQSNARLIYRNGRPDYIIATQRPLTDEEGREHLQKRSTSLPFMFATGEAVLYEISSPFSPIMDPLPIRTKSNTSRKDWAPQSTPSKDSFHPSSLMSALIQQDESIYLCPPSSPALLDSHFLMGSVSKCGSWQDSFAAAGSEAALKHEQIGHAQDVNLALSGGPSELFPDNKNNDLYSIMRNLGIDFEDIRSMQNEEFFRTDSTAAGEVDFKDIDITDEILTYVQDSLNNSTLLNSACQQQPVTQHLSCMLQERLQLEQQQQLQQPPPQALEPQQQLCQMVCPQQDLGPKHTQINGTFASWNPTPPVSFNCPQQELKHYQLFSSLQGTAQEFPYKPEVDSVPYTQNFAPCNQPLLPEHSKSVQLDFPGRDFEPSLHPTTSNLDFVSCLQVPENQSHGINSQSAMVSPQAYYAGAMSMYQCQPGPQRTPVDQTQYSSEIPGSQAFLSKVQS
Experiment: Reporter gene assay in Neuro2a with pTHE100×3/Luc and PGV-mAhR
Format: cell-based
Details: 1 to 10,000 pM TCDD
From the text: In Example 8, the vector pTHE100×3/Luc (Example 7, FIG. 7A) was used as the vector containing a reporter gene, and Neuro2a was used as the cell.
In this Example, a combination of pcDNA4-rAhR (Example 1) containing the SD-line rat AhR gene and pcDNA4/V5-His/lacZ (Invitrogen), as well as a combination of PGV-mAhR (Example 1) containing the C57/BL6-line mouse AhR gene and pcDNA4/V5-His/lacZ were used as the vectors for introducing into the cell together with pTHE100×3/Luc. pcDNA4-rAhR was introduced into the cell for constitutive expression of the SD-line rat AhR (SEQ ID No: 10); PGV-mAhR was introduced into the cell for constitutive expression of C57/BL6-line mouse AhR (SEQ ID No: 11); and pcDNA4/V5-His/lacZ was introduced into the cell for normalization of the transfection efficiency of the vector.
The vectors were introduced into the cell by using LIPOFECTAMINE 2000, similarly to the method described in Example 3. After the above vectors were introduced into the cell, the obtained cell was exposed to 1 to 10,000 pM of TCDD to examine the increase in expression amount of the reporter gene in response to TCDD.

## Clc1cc2c(cc1Cl)Oc1cc(Cl)c(Cl)cc1O2 [TCDD, 2,3,7,8-tetrachlorodibenzo-p-dioxine]
  induction of transcription of the reporter gene in response to TCDD: effective in inducing transcription of the reporter gene
